Test results reported in patent publication US20180008717A1, “PHARMACEUTICAL COMPOSITION WITH ANALGESIC AND ANTI-INFLAMMATORY ACTIVITY” (priority 2016, published 2018).
Counter-ions that a name gives are not always drawn.

Tests used:
Assay type in all cases: in vivo
mice [1] = test: Hot plate test (topical ointment); settings: hot plate 55 degrees Celsius, 2 percent w/w ointment topically 5 min before, cut-off 60 seconds, mean±SEM
Experimental: (§1) Example 3 illustrates the analgesic activity of the esters evaluated using models of providing thermal stimuli (hot plate) and chemical stimuli (formalin, capsaicin and allyl isothiocyanate) to the subjects i.e., mice.
TEST 1: Hot plate test: The hot plate test (HPT) is often used for investigation of a noxious stimulus (heat) in models of acute pain. Classically, the latency of the animal's response to the stimulus is recorded as the dependent variable.
All compounds, including BZC, were applied topically in an ointment (2 percent weight by weight based on the total weight of formulation) prepared according to the procedure described in Example 1. The ointments were applied both to the palmar and plantar surfaces of the paws of the mice by gently rubbing 5 min before analgesic activity evaluation. A corresponding amount of the ointment base were similarly applied for mice used as control animals. The mice were placed on a hot plate maintained at 55 degrees Celsius, one at a time. In this experiment, latency to respond to the heat stimulus was determined by the amount of time (in seconds) it took for a mouse to lick one of its paws. Cut-off time was fixed at 60 seconds to minimize the tissue damage that occurs during prolonged contact with heated surface. All values are expressed as the mean±standard errors of the mean (SEM) in all the tables.

mice [2] = test: Formalin test, early phase (topical ointment); settings: 20 microliter 2 percent formalin s.c., 2 percent w/w ointment topically 5 minutes before, 0 to 5 min (early phase), mean±SEM
Experimental: as §1
TEST 3: Formalin test: The formalin test was used to determine the potential analgesic effects of compounds for states of persistent pain in which tissue damage occurs. The nociceptive response produced by formalin is biphasic: an early response (0 to 5 min after injection) and a late response (20 to 30 minutes after injection). These two phases can be distinguished pharmacologically: phase 1 is supposed to represent a direct chemical stimulation of nociceptors while phase 2 is thought to involve inflammation. Aiming at assessment precisely response caused by a burst of activity from pain fibers we measured the licking time as an indicator of nociception only during the first (early) phase. All compounds, including BZC, were applied topically in an ointment (2 percent weight by weight based on the total weight of formulation) prepared according to the procedure described in Example 2. The ointments were applied to the affected paws' surface by gently rubbing 5 minutes before analgesic activity evaluation. A corresponding amount of the ointment base were similarly applied for mice used as control animals. After that, 20 microliter of a 2 percent formalin solution in 0.9 percent NaCl (w/w) was injected subcutaneously into the dorsal surface of the hindpaw. The animal then was placed in an individual plexiglass cage. The time spent by the animal in licking the injected paw was measured from 0 to 5 min (early phase) after formalin administration and was considered as an indicator of pain response.

mice [3] = test: Capsaicin test (topical ointment); settings: capsaicin 6 micrograms/paw s.c., 2 percent w/w ointment topically 5 min before, observed 5 minutes, mean±SEM
From the text: as §1
TEST 2: Capsaicin test: Capsaicin (8-methyl-N-vanillyl-6-nonenamide), the pungent substance obtained from hot red pepper, is used to evaluate analgesic activity on mice, for compounds synthesized herein.
All compounds, including BZC, were applied topically as an ointment (2 percent weight by weight based on the total weight of formulation) prepared according to the procedure described in Example 2. The ointments were applied to the affected paws' surface by gently rubbing 5 min before analgesic activity evaluation. A corresponding amount of the ointment base were similarly applied for mice used as control animals. To evaluate analgesic activity 20 microliter of capsaicin solution in 1,2-propylene glycol (6 micrograms/paw) was injected subcutaneously under the skin of the dorsal surface of the hindpaw. Animals were observed individually for 5 minutes after capsaicin administration. The amount of time that mice spent licking the injected paw was recorded and considered as an index of pain.

mice [4] = test: Allyl isothiocyanate (AITC, TRPA1 agonist) test (topical ointment); settings: 20 microliters 0.5 percent AITC s.c., 2 percent w/w ointment topically 5 min before, observed 10 minutes, mean±SEM
Experimental: as §1
TEST 4: Allyl isothiocyanate test: The analgesic activity was evaluated by a model of chemical stimulus with the use of TRPA1 agonist—allyl isothiocyanate (AITC).
20 Microliters of 0.5 percent (w/w in 1,2-propylene glycol) AITC solution was injected subcutaneously under the skin of the dorsal surface of the right hindpaw. All compounds, including BZC, were applied topically in an ointment (2 percent weight by weight based on the total weight of formulation) prepared according to the procedure described in Example 2. The ointments were applied to the affected paws' surface by gently rubbing 5 min before analgesic activity evaluation. A corresponding amount of the ointment base were similarly applied for mice used as control animals. AITC dose was selected based on our preliminary trials and from literature citations. Animals were observed individually for 10 minutes after AITC administration. The amount of time that mice spent licking the injected paw (reaction time in seconds) was recorded and considered as an index of pain.

rat paw = test: AITC-induced rat paw edema assay; settings: for ability to decrease the AITC-induced inflammatory state compared with ibuprofen: 2 percent w/w ointment topically; for time of inflammation maximum following AITC injection: 2 percent w/w ointment, vehicle edema maximum at 3 hours; for level of AITC-induced edema (volume of affected paw): AITC 100 microgram per paw, 2 percent w/w ointment topically 30 minutes before and at each time point, percentage of the control
Experimental: One-way analysis of variance (ANOVA) followed by Tukey's post hoc comparison.
The anti-inflammatory effect was determined using an AITC-induced rat paw edema assay. […] The ointments were additionally applied by gently rubbing on the affected paw at each time point.

Structure (SMILES) | Reaction time (latency to lick a paw) (mice [1]) [s] | Reaction time (latency to lick a paw) (mice [1]; listed as BZC) | Licking time (mice [2]) [s] | Licking time (mice [3]) [s] | Licking time (mice [4]) [s] | Reaction time (latency to lick a paw) (mice [1]; listed as COMPOUND 1, hydrochloride) [s] | Reaction time (latency to lick a paw) (mice [1]; listed as compound 1, hydrochloride) | ability to decrease the AITC-induced inflammatory state compared with ibuprofen (rat paw) | time of inflammation maximum following AITC injection (rat paw) | level of AITC-induced edema (volume of affected paw) (rat paw) [%] | Reaction time (latency to lick a paw) (mice [1]; listed as COMPOUND 2, hydrochloride) [s] | Reaction time (latency to lick a paw) (mice [1]; listed as compound 2, hydrochloride) | Reaction time (latency to lick a paw) (mice [1]; listed as COMPOUND 3, hydrochloride) [s] | Reaction time (latency to lick a paw) (mice [1]; listed as compound 3, hydrochloride) | Reaction time (latency to lick a paw) (mice [1]; listed as COMPOUND 4, hydrochloride) [s] | Reaction time (latency to lick a paw) (mice [1]; listed as compound 4, hydrochloride)
CCOC(=O)c1ccc(N)cc1 [Benzocaine, benzocaine, reference compound] | 18.3 ± 0.9 | about 18.3 sec | 36.3 ± 2.4 | 28.7 ± 6.6 | 48.0 ± 2.0 | – | – | – | – | – | – | – | – | – | – | –
CC(C)[C@@H]1CC[C@@H](C)C[C@H]1OC(=O)CCCN [Compound 1, (1R,2S,5R)-2-isopropyl-5-methylcyclohexyl-4-aminobutyrate hydrochloride] | – | – | 30.3 ± 7.4 | 4.3 ± 0.9 | 2.7 ± 0.3 | 30.2 ± 2.6 | about 30.2 sec | exceed reference drug ibuprofen | about 1.5 hours | 136 | – | – | – | – | – | –
Cc1ccc(C(C)C)c(OC(=O)CCCN)c1.Cl [Compound 2, 2-isopropyl-5-methylphenyl 4-aminobutyrate hydrochloride] | – | – | 52.2 ± 6.6 | 19.7 ± 2.6 | 20.3 ± 5.8 | – | – | exceed reference drug ibuprofen | about 1.5 hours | 112 | 21.3 ± 0.9 | about 21.3 sec | – | – | – | –
Cc1ccc(C(C)C)cc1OC(=O)CCCN.Cl [Compound 3, 5-isopropyl-2-methylphenyl 4-aminobutyrate hydrochloride] | – | – | 31.1 ± 8.3 | 12.0 ± 1.2 | 22.8 ± 4.3 | – | – | relatively comparable effects with ibuprofen | about 1.5 hours | – | – | – | 19.3 ± 3.8 | about 19.3 sec | – | –
COc1ccccc1OC(=O)CCCN.Cl [Compound 4, 2-methoxylphenyl 4-aminobutyrate hydrochloride] | – | – | 47.6 ± 9.8 | 24.3 ± 3.3 | 25.3 ± 1.5 | – | – | relatively comparable effects with ibuprofen | about 1.5 hours | – | – | – | – | – | 16.5 ± 3.7 | about 16.5 sec
CC(C)Cc1ccc(C(C)C(=O)O)cc1 (stereo not drawn) [ibuprofen, reference compound] | – | – | – | – | – | – | – | – | about 1.5 hours | – | – | – | – | – | – | –
